The compounds below were run against USP7 (Homo sapiens (Human), UniProt Q93009) (assay: USP7 Biochemical IC50 Assay). Details: FLAG-USP7; enzyme and compound incubated 30 min at room temp; TAMRA labelled peptide-ubiquitin fluorescence polarisation substrate; read after 2 hr; read-out: IC50 range.
Method: The USP7 construct was PCR amplified and cloned into a pFLAG-CMV-6a vector (Sigma-Aldrich) with an N-terminal FLAG tag. HEK293T cells were transfected with FLAG-USP7 using TransIT-LT1 transfection reagent (Mirus) according to the manufacturer's instructions. Cells were harvested 40 hours after transfection. […] The resin was washed two times with low salt buffer plus protease inhibitors (complete mini, Roche) and phosphatase inhibitors (PhosSTOP mini, Roche) and one time with high salt buffer (20 mM Tris, pH 7.5, 500 mM NaCl, 0.5 mM EDTA, 5 mM beta-mercaptoethanol, protease inhibitors (complete mini, Roche) and phosphatase inhibitors (PhosSTOP mini, Roche). To elute the bound USP7, elution buffer (10 mM Tris, pH 7.5, 150 mM NaCl, 0.5 mM EDTA, 10% glycerol, 0.5% NP40, 5 mM beta-mercaptoethanol, 0.15 mg/ml 3×FLAG peptide (Sigma-Aldrich)) was added to the resin and incubated at 4° C. for 2.5 hours rotating. The resin was centrifuged at 4000 rpm for 30 seconds, and the supernatant containing purified FLAG-USP7 was removed and stored at −80° C.
USP7 Biochemical IC50 Assay
A typical 8-point dilution series would be 100, 30, 10, 3, 1, 0.3, 0.1, 0.03 μM final. […] Either 1 μl of 50% DMSO or diluted compound was added to the plate. USP7 was diluted in reaction buffer (20 mM Tris, pH 7.5, 100 mM NaCl, 0.05% Tween 20, 0.5 mg/ml BSA, 5 mM—beta mercaptoethanol) to the equivalent of 0.0025 μl/well and 10 μl of diluted USP7 was added to the compound. Enzyme and compound were incubated for 30 min at room temp. Reactions were initiated by the addition of 50 nM of TAMRA labelled peptide linked to ubiquitin via an iso-peptide bond as fluorescence polarisation substrate. Reactions were read immediately after addition of substrate and following a 2 hr incubation at room temperature. Readings were performed on a Pherastar Plus (BMG Labtech). λ Excitation 540 nm; λ Emission 590 nm.

Chain of USP7 (Q93009 whole entry): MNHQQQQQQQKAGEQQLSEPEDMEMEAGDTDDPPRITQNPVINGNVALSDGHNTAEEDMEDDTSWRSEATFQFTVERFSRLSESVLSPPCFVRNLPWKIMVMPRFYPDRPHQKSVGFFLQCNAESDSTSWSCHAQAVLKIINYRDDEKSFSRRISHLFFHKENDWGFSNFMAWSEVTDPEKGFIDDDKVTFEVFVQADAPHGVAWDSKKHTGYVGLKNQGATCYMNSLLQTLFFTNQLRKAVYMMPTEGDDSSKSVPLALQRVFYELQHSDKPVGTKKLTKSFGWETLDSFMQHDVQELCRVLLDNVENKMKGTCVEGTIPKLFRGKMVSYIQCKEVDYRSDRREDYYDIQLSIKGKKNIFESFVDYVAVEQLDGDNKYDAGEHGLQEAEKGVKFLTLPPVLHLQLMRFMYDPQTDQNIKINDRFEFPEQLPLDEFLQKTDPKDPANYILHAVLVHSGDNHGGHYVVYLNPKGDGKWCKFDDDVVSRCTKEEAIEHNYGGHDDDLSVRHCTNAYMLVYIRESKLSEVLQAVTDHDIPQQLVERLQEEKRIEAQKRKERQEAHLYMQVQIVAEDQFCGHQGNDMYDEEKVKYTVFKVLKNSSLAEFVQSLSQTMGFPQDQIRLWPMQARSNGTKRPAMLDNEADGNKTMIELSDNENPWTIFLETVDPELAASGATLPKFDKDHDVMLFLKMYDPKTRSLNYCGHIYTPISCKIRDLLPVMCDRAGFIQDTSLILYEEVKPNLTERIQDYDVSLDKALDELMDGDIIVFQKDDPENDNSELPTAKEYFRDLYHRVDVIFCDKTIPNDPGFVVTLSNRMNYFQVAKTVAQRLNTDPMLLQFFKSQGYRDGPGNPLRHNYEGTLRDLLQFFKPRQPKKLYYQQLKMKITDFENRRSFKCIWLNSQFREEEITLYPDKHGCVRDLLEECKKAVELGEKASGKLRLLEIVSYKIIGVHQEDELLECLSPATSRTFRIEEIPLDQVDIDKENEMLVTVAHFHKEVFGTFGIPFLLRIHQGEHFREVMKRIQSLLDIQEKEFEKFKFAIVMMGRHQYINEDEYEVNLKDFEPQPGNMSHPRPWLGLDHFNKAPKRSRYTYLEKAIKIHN

With CN1CCN(c2ccc(-c3n[nH]c4c3CN(C#N)C4)c(F)c2)CC1 [Example 73, 3-(2-Fluoro-4-(4-methylpiperazin-1-yl)phenyl)-4,6-dihydro-pyrrolo[3,4-c]pyrazole-5(1H)-carbonitrile] as the compound, how does the IC50 read?
Its IC50 is < 10 µM.

For Cn1ncc2cc(-c3n[nH]c4c3CN(C#N)C4)ccc21 [Example 52, 3-(1-Methyl-1H-indazol-5-yl)-4,6-dihydropyrrolo[3,4-c]pyrazole-5(1H)-carbonitrile], which IC50 is on record?
The IC50 was < 10 µM.

With N#CN1Cc2c(Nc3ccccn3)nn(-c3ccc(C(N)=O)cc3)c2C1 [Example 33, 4-(5-Cyano-3-(pyridin-2-ylamino)-5,6-dihydropyrrolo[3,4-c]pyrazol-1(4H)-yl)benzamide] as the compound, how does the IC50 read?
Its IC50 is 10 to 30 µM.

N#CN1Cc2[nH]nc(CNC(=O)c3cn4cc(Cl)ccc4n3)c2C1 [Example 65, 6-Chloro-N-((5-cyano-1,4,5,6-tetrahydropyrrolo[3,4-c]pyrazol-3-yl)methyl)-imidazo[1,2-a]pyridine-2-carboxamide] was tested. Which IC50 did it give?
The IC50 was < 10 µM.

Cc1ccc(F)c(-c2n[nH]c3c2CN(C#N)C3)c1 [Example 27, 3-(2-Fluoro-5-methylphenyl)-4,6-dihydropyrrolo[3,4-c]pyrazole-5(1H)-carbonitrile] was tested. Which IC50 did it give?
Its IC50 is < 10 µM.

COc1cc(Cl)ccc1-c1n[nH]c2c1CN(C#N)C2 [Example 67, 3-(4-Chloro-2-methoxyphenyl)-4,6-dihydropyrrolo[3,4-c]pyrazole-5(4H)-carbonitrile] was tested. Which IC50 did it give?
The IC50 was < 10 µM.

How did the IC50 turn out when CCc1ccc(OC)c(-c2n[nH]c3c2CN(C#N)C3)c1 [Example 64, 3-(5-Ethyl-2-methoxyphenyl)-4,6-dihydropyrrolo[3,4-c]pyrazole-5(1H)-carbonitrile] was run?
Its IC50 is < 10 µM.

For COc1ccc(C(C)C)cc1-c1nn(C)c2c1CN(C#N)C2 [Example 62, 3-(5-Isopropyl-2-methoxyphenyl)-1-methyl-4,6-dihydropyrrolo[3,4-c]pyrazole-5(1H)-carbonitrile], which IC50 is on record?
Its IC50 is < 10 µM.

With N#CN1Cc2[nH]nc(-c3ccc(Oc4ccccc4)cc3)c2C1 [Example 41, 3-(4-Phenoxyphenyl)-4,6-dihydropyrrolo[3,4-c]pyrazole-5(1H)-carbonitrile] as the compound, how does the IC50 read?
The IC50 was < 10 µM.

N#CN1Cc2cnn(-c3ccccc3F)c2C1 [Example 4, 1-(2-Fluorophenyl)-4,6-dihydropyrrolo[3,4-c]pyrazole-5(1H)-carbonitrile] was tested. Which IC50 did it give?
The IC50 was 10 to 30 µM.

Which IC50 does the source give for CC(C)Oc1ccc(F)cc1-c1n[nH]c2c1CN(C#N)C2 [Example 48, 3-(5-Fluoro-2-isopropoxyphenyl)-4,6-dihydropyrrolo[3,4-c]pyrazole-5(1H)-carbonitrile] here?
Its IC50 is < 10 µM.

N#CN1Cc2cnn(-c3cn(-c4ccccc4)cn3)c2C1 [Example 9, 1-(1-Phenyl-1H-imidazol-4-yl)-4,6-dihydropyrrolo[3,4-c]pyrazole-5(1H)-carbonitrile] was tested. Which IC50 did it give?
Its IC50 is 10 to 30 µM.

How did the IC50 turn out when Cn1nc2c(c1-c1ccccc1)CN(C#N)C2 [Example 22, 2-Methyl-3-phenyl-2,6-dihydropyrrolo[3,4-c]pyrazole-5(4H)-carbonitrile] was run?
The IC50 was < 10 µM.

For N#CN1Cc2cnn(-c3ccccc3)c2C1 [Example 2, 1-Phenyl-4,6-dihydropyrrolo[3,4-c]pyrazole-5(1H)-carbonitrile], which IC50 is on record?
Its IC50 is 10 to 30 µM.

For COc1ccc(C(C)C)cc1-c1nn(Cc2ccccc2)c2c1CN(C#N)C2 [Example 25, 1-Benzyl-3-(5-isopropyl-2-methoxyphenyl)-4,6-dihydropyrrolo[3,4-c]pyrazole-5(1H)-carbonitrile], which IC50 is on record?
Its IC50 is 10 to 30 µM.

Which IC50 does the source give for N#CN1Cc2cnn(-c3cccc(C(=O)NCc4ccccc4)c3)c2C1 [Example 11, N-Benzyl-3-(5-cyano-5,6-dihydropyrrolo[3,4-c]pyrazol-1(4H)-yl)benzamide] here?
Its IC50 is 10 to 30 µM.

Which IC50 does the source give for N#CN1Cc2cnn(-c3cnc4ccccc4c3)c2C1 [Example 6, 1-(Quinolin-3-yl)-4,6-dihydropyrrolo[3,4-c]pyrazole-5(1H)-carbonitrile] here?
Its IC50 is < 10 µM.

CC(=O)NCc1nn(-c2ccccc2)c2c1CN(C#N)C2 [Example 36, N-((5-Cyano-1-phenyl-1,4,5,6-tetrahydropyrrolo[3,4-c]pyrazol-3-yl)methyl)acetamide] was tested. Which IC50 did it give?
Its IC50 is 10 to 30 µM.

With CN1CCC(n2cc(-c3n[nH]c4c3CN(C#N)C4)cn2)CC1 [Example 68, 3-(1-(1-Methylpiperidin-4-yl)-1H-pyrazol-4-yl)-4,6-dihydropyrrolo[3,4-c]pyrazole-5(1H)-carbonitrile] as the compound, how does the IC50 read?
The IC50 was < 10 µM.

With N#CN1Cc2[nH]nc(Nc3cc4ccccc4cn3)c2C1 [Example 31, 3-(Isoquinolin-3-ylamino)-4,6-dihydropyrrolo[3,4-c]pyrazole-5(1H)-carbonitrile] as the compound, how does the IC50 read?
Its IC50 is < 10 µM.

With Cn1ncc2cc(-n3ncc4c3CN(C#N)C4)ccc21 [Example 17, 1-(1-Methyl-1H-indazol-5-yl)-4,6-dihydropyrrolo[3,4-c]pyrazole-5(1H)-carbonitrile] as the compound, how does the IC50 read?
Its IC50 is < 10 µM.

With COc1cc(-n2cccn2)ccc1-c1n[nH]c2c1CN(C#N)C2 [Example 70, 3-(2-Methoxy-4-(1H-pyrazol-1-yl)phenyl)-4,6-dihydropyrrolo[3,4-c]pyrazole-5(4H)-carbonitrile] as the compound, how does the IC50 read?
The IC50 was < 10 µM.

How did the IC50 turn out when CNC(=O)c1ccc(-n2ncc3c2CN(C#N)C3)cc1 [Example 15, 4-(5-Cyano-5,6-dihydropyrrolo[3,4-c]pyrazol-1(4H)-yl)-N-methylbenzamide] was run?
The IC50 was 10 to 30 µM.

For N#CN1Cc2cnn(-c3cc(C(N)=O)n[nH]3)c2C1 [Example 28, 5-(5-Cyano-5,6-dihydropyrrolo[3,4-c]pyrazol-1(4H)-yl)-1H-pyrazole-3-carboxamide], which IC50 is on record?
Its IC50 is 10 to 30 µM.

With Cc1ccc(F)c(-c2c3c(nn2C)CN(C#N)C3)c1 [Example 61, 3-(2-fluoro-5-methylphenyl)-2-methyl-2,6-dihydropyrrolo[3,4-c]pyrazole-5(4H)-carbonitrile] as the compound, how does the IC50 read?
The IC50 was 10 to 30 µM.

For N#CN1Cc2cnn(-c3cccc(NS(=O)(=O)C4CC4)c3)c2C1 [Example 78, N-(3-(5-Cyano-5,6-dihydropyrrolo[3,4-c]pyrazol-1(4H)-yl)phenyl) cyclopropanesulfonamide], which IC50 is on record?
The IC50 was 10 to 30 µM.

N#CN1Cc2[nH]nc(-c3cccc(NS(=O)(=O)C4CC4)c3)c2C1 [Example 56, N-(3-(5-Cyano-1,4,5,6-tetrahydropyrrolo[3,4-c]pyrazol-3-yl)phenyl)cyclo-propanesulfonamide] was tested. Which IC50 did it give?
The IC50 was < 10 µM.

Cc1nn(-c2ccccc2)c2c1CN(C#N)C2 [Example 10, 3-Methyl-1-phenyl-4,6-dihydropyrrolo[3,4-c]pyrazole-5(1H)-carbonitrile] was tested. Which IC50 did it give?
The IC50 was 10 to 30 µM.

For N#Cc1ccc(-c2n[nH]c3c2CN(C#N)C3)cc1 [Example 42, 3-(4-Cyanophenyl)-4,6-dihydropyrrolo[3,4-c]pyrazole-5(1H)-carbonitrile], which IC50 is on record?
Its IC50 is < 10 µM.

With N#CN1Cc2cnn(-c3ccc(F)cc3)c2C1 [Example 3, 1-(4-Fluorophenyl)-4,6-dihydropyrrolo[3,4-c]pyrazole-5(1H)-carbonitrile] as the compound, how does the IC50 read?
The IC50 was < 10 µM.

How did the IC50 turn out when Cn1nccc1-c1n[nH]c2c1CN(C#N)C2 [Example 39, 3-(1-Methyl-1H-pyrazol-5-yl)-4,6-dihydropyrrolo[3,4-c]pyrazole-5(1H)-carbonitrile] was run?
The IC50 was 10 to 30 µM.

For Cn1nc(-c2ccccc2)c2c1CN(C#N)C2 [Example 21, 1-Methyl-3-phenyl-4,6-dihydropyrrolo[3,4-c]pyrazole-5(1H)-carbonitrile], which IC50 is on record?
Its IC50 is < 10 µM.

How did the IC50 turn out when N#CN1Cc2[nH]nc(-c3ccc(OCc4ccccc4)cc3)c2C1 [Example 37, 3-(4-(Benzyloxy)phenyl)-4,6-dihydropyrrolo[3,4-c]pyrazole-5(1H)-carbonitrile] was run?
The IC50 was < 10 µM.

COc1ccc(C(C)C)cc1-c1c2c(nn1C)CN(C#N)C2 [Example 63, 3-(5-Isopropyl-2-methoxyphenyl)-2-methyl-2,6-dihydropyrrolo[3,4-c]pyrazole-5(4H)-carbonitrile] was tested. Which IC50 did it give?
Its IC50 is 10 to 30 µM.

For N#CN1Cc2cnn(-c3ccc(C(N)=O)cc3)c2C1 [Example 5, 4-(5-Cyano-5,6-dihydropyrrolo[3,4-c]pyrazol-1(4H)-yl)benzamide], which IC50 is on record?
Its IC50 is 10 to 30 µM.

Which IC50 does the source give for Cc1cc(-c2n[nH]c3c2CN(C#N)C3)ccc1N1CCN(C)CC1 [Example 74, 3-(3-Methyl-4-(4-methylpiperazin-1-yl)phenyl)-4,6-dihydro-pyrrolo[3,4-c]pyrazole-5(1H)-carbonitrile] here?
The IC50 was < 10 µM.

With N#CN1Cc2[nH]nc(-c3ccc(C(=O)NCc4ccccc4)cc3F)c2C1 [Example 79, N-Benzyl-4-(5-cyano-1,4,5,6-tetrahydropyrrolo[3,4-c]pyrazol-3-yl)-3-fluorobenzamide] as the compound, how does the IC50 read?
Its IC50 is < 10 µM.

With N#CN1Cc2[nH]nc(-c3ccc(C(F)(F)F)cc3F)c2C1 [Example 43, 3-(2-Fluoro-4-(trifluoromethyl)phenyl)-4,6-dihydropyrrolo[3,4-c]pyrazole-5(1H)-carbonitrile] as the compound, how does the IC50 read?
The IC50 was < 10 µM.

N#CN1Cc2cnn(-c3cccc(C(=O)NCc4ccccn4)c3)c2C1 [Example 13, 3-(5-Cyano-5,6-dihydropyrrolo[3,4-c]pyrazol-1(4H)-yl)-N-(pyridin-2-ylmethyl)benzamide] was tested. Which IC50 did it give?
Its IC50 is < 10 µM.
